The values below come from PubChem BioAssay AID179 (DTP/NCI, 2004).

In this test the test system is CEM cells HIV-1 protection, formazan growth assay. In words: NCI AIDS Antiviral Assay. Conditions: for pIC50: measured here: growth of uninfected CEM cells. The procedure, abridged: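 Five concentrations of each compound were applied to infected and uninfected human CEM cells. Protection from HIV-1 was judged from growth measured with a soluble formazan assay.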

pEC50, pIC50: −log10 of the molar value. Where “and” joins values, the source holds several entries; their conditions need not be identical. Identical values can stand only once. Calls of active or inactive are those of the source.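 The calls were made as follows: active = compounds giving half or more protection of infected cells from virus-caused growth loss, again on retest; inactive = the rest.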 Where a SMILES comes first, the peptide text is derived from it. The star is where a group is joined. Cbz = O=C(OCc1ccccc1)*

Turning to `O=c1nc2sc3ccccc3c(=O)n2[nH]1`, the pEC50 was less than 3.69 and the pIC50 is 4.11.

Regarding `CNC(=O)CNC(=O)CCC(=O)N(C)C`, the pEC50 was less than 3.70 and the pIC50 is less than 3.70.

On to `CC(=O)OC1C=CC(SC23CC4CC(CC(C4)C2)C3)N(C(C)=O)C1SC12CC3CC(CC(C3)C1)C2` (stereo unspecified), for which the pEC50 is less than 3.70 and the pIC50 was less than 3.70.

Take `Cc1cc(C)c2nccc(NCCCN(C)C)c2c1[N+](=O)[O-]`: the pEC50 was less than 3.70 and the negative logarithm of the IC50 (pIC50) was 4.37.

On to `O=C1NC2CCC(C2)C1c1ccccc1` (stereo unspecified), for which the outcome was inactive.

As to `NC(=S)Nc1ccc2c(c1)oc1ccccc12`, the pEC50 is less than 3.70 and the negative logarithm of the IC50 (pIC50) was less than 3.70.

For `O=C(c1ccccc1)c1ccc(C(c2c(O)c3ccccc3oc2=O)c2c(O)c3ccccc3oc2=O)cc1`, the pEC50 is less than 3.70 and the pIC50 is 4.46.

In the case of `CC(C)(CC(O)C#N)/[N+]([O-])=[N+](\[O-])C(C)(C)CC(O)C#N` (stereo unspecified), the outcome was inactive.

Regarding `CCOC(=O)C(=O)C(/C(=N/N(C)C)C(=O)Nc1ccc(C)cc1C)c1nc2ccccc2[nH]c1=O` (stereo unspecified), the pEC50 was less than 3.42 and the pIC50 was 3.66.

In the case of `OC(Cc1cc(CC(O)(C(F)(F)F)C(F)(F)F)nc(CC(O)(C(F)(F)F)C(F)(F)F)c1)(C(F)(F)F)C(F)(F)F`, the pEC50 is less than 3.70 and the pIC50 was 5.99.

Regarding `CCS(=O)c1c2cc(OC)ccc2nc2ccc(OC)cc12` (stereo unspecified), the pEC50 is less than 3.70 and the pIC50 is 5.86.

Turning to `O=c1ccn(C2OC(CO)C(F)C2F)c(=O)[nH]1` (stereo unspecified), the pEC50 was less than 3.30 and the pIC50 was less than 3.30.

For `O=C(O)[C@@H]1CSCN1C(=O)[C@@H]1CCC(=S)N1`, the pEC50 is less than 3.70 and the pIC50 was less than 3.70.

On to `Nc1ccc(C(=O)NN2C(=O)C(Cl)C2c2cc(Br)ccc2O)cc1` (stereo unspecified), for which the pEC50 is less than 3.70 and the pIC50 was 4.51.

As to `COc1cc2c(c(OC)c1OC)-c1ccc(OC)c(=O)cc1C(NC(=O)COc1ccccc1)CC2` (stereo unspecified), the pEC50 was less than 6.70 and the pIC50 is 8.60.

For the molecule `O=C1CCN2CCC(=O)c3c2c(cc2ccccc32)N1`, the pEC50 was less than 4.57 and the pIC50 is less than 4.57.

As to `O=C(CCCN1CCc2[nH]c3ccccc3c2C1)c1ccc(F)cc1`, the pEC50 was less than 3.70 and the pIC50 is 4.47.

In the case of `O=C(COc1ccc(/C=C/C(=O)c2ccc(Cl)cc2)cc1)Nc1c(Cl)cccc1Cl`, the pEC50 is less than 4.39 and the pIC50 is less than 4.39.

Regarding `O=C1NN=C(c2c[nH]c3ccccc23)CC1NCc1ccccc1` (stereo unspecified), the pEC50 was less than 3.70 and the pIC50 is less than 3.70.

Turning to `O=C(C1OC1c1ccc(O)cc1)C12CC3CC(CC(C3)C1)C2` (stereo unspecified), the pEC50 is less than 3.70 and the pIC50 is 4.28.

Regarding `COc1ccc(C(=O)C(CO)Oc2ccccc2OC)cc1OC` (stereo unspecified), the pEC50 is less than 3.12 and the pIC50 was 3.29.

Take `O=C(NCC1(O)N=C(c2ccc(F)cc2)c2ccsc2-n2cccc21)c1ccc(Cl)cc1Cl` (stereo unspecified): the pEC50 was less than 3.70 and the pIC50 is 4.74.

`NC(=O)NNC(=O)NC12CC3CC(CC(C3)C1)C2`: the result was inactive.

`O=C1C=C(Nc2ccc(Cl)cc2C(=O)c2ccccc2)c2ccccc2C1=O`: the pEC50 is less than 3.76 and the negative-log IC50 (pIC50) is less than 3.76.

Turning to `COc1ccc(S(=O)(=O)NNS(C)(=O)=O)cc1OC`, the pEC50 is less than 4.39 and the negative logarithm of the IC50 (pIC50) was less than 4.39.

Take `O=C1C(Cl)N(c2cccc(Cl)c2)C1c1c[nH]c2ccccc12` (stereo unspecified): the pEC50 was less than 3.55 and the pIC50 is 3.99.

Turning to `COc1ccc(/C=C/c2ccc3ccccc3n2)c(OC)c1`, the pEC50 was less than 3.70 and the pIC50 is 4.91.

For `O=C1c2ccoc2C(=O)c2oc(=O)ccc21`, the pEC50 was less than 3.99 and the pIC50 is 5.24.

For `CC(NC(=O)C(NC(=O)OCc1ccccc1)C(C)C)C(=O)NCC(=O)O` (stereo not drawn) (Cbz-Val-Ala-Gly-OH; configuration not given here), the pEC50 was less than 3.70 and the pIC50 was less than 3.70.

Take `COC(=O)C1CC2C=CC1N(C(=O)OCc1ccccc1)C2` (stereo unspecified): the pEC50 was less than 3.70 and the negative logarithm of the IC50 (pIC50) was 3.77.

Take `O=[N+]([O-])c1cc(Cl)ccc1S(=O)(=O)c1ccccc1`: the pEC50 is less than 3.70; the pIC50 is 4.52 and 4.26.

In the case of `Nc1ccccc1SC(/C=C/NNC1=NC(c2ccccc2)C(c2ccccc2)=NN1)c1ccccc1` (stereo unspecified), the pEC50 is less than 4.00 and the pIC50 is 5.37.

Take `C=C(Br)CN(CC(=C)Br)C(C)=O`: the pEC50 is less than 3.70 and the pIC50 is less than 3.70.

Turning to `C=CCN1C(=O)C(=O)N(CC=C)C(=O)C1=O`, the outcome was inactive.

Take `CCN(CC)CCOC(=O)c1ccc(NC(=O)CN(CC)CC)cc1`: the pEC50 is less than 3.70 and the pIC50 is less than 3.70.

As to `CCOC(=O)C1(CC)OC12CCCCC2` (stereo unspecified), the pEC50 was less than 3.70 and the pIC50 is less than 3.70.

For `CN1C/C(=C\c2ccco2)c2nc(N)nc(-c3ccco3)c2C1`, the outcome was inactive.

As for `Cc1cc(Cl)ccc1NC(=O)CCCC(=O)C1C/C(=N/O)CC/C1=N\O` (stereo unspecified), the pEC50 is less than 4.02 and the pIC50 is less than 4.02.

On to `CCOC(=O)c1nc(C)c(-c2ccccc2)c(-c2ccccc2)c1C`, for which the pEC50 was less than 4.94 and the pIC50 was less than 4.94.

`C=C(C)[C@@H](C(=O)OC)N1C(=O)c2ccccc2C1=O`: the pEC50 was less than 3.70 and the pIC50 was less than 3.70.

For `Oc1ccc(/C=C/c2cc(O)cc3c2C(c2cc(O)cc4c2C(c2cc(O)cc(O)c2)C(c2ccc(O)cc2)O4)C(c2ccc(O)cc2)O3)cc1` (stereo unspecified), the pEC50 was less than 4.68 and the pIC50 is 4.98.

For the molecule `CC1(C)O[C@@H]2COC(=O)[C@@H]2O1`, the pEC50 is less than 3.70 and the pIC50 was less than 3.70.

Regarding `COc1nc(N=P(c2ccccc2)(c2ccccc2)c2ccccc2)cc(=O)n1C`, the outcome was inactive.

As to `c1ccc2nc3c(nc2c1)sc1nc2ccccc2n13`, the pEC50 was less than 3.70 and the negative logarithm of the IC50 (pIC50) was less than 3.70.

For the molecule `COC12C=CC(CC1)C(C)(C)C2=O` (stereo unspecified), the pEC50 is less than 3.70 and the pIC50 was less than 3.70.

Turning to `CCOC(=O)c1cc(Br)c(-c2cc(C)co2)[nH]1`, the pEC50 was less than 3.70 and the pIC50 was less than 3.70.

Consider `COc1cc(-c2cc(=O)c3c(O)c(OC)c(OC)c(OC)c3o2)cc(OC)c1OC`, for which the pEC50 is less than 4.15 and the pIC50 is less than 4.15.

For the molecule `CC(=O)Nc1cc(S(=O)(=O)O)cc2cc(S(=O)(=O)O)cc(O)c12`, the pEC50 is less than 3.70 and the pIC50 was less than 3.70.

In the case of `COc1ccc(-c2nc3ccc([N+](=O)[O-])cc3c(=O)[nH]2)cc1`, the result was inactive.

For `Cn1c(=O)c2c(ncn2Cc2ccc(O)c([N+](=O)[O-])c2)n(C)c1=O`, the pEC50 is less than 3.70 and the pIC50 was less than 4.00.

For the molecule `CCOc1ccc2nc(NC(=O)C(=O)C(C(=O)c3ccccc3-c3ccccc3)C3OC(=O)c4ccccc43)sc2c1` (stereo unspecified), the pEC50 was less than 3.51 and the pIC50 was 3.88.

With `CC(C)c1nc2c(Cl)c3ncccc3cc2[nH]c1=O`, the pEC50 is less than 4.00 and the pIC50 was 4.40.

Consider `O=C1CCCCCC1CC(Sc1ccccc1)Sc1ccccc1` (stereo unspecified), for which the pEC50 is less than 3.70 and the negative logarithm of the IC50 (pIC50) was 4.79.

Regarding `Cc1c2c(cc3c(=O)ccn(CCN(C)C)c13)c(=O)ccn2CCN(C)C`, the pEC50 was less than 3.87 and the pIC50 was 6.00.

As to `N#Cc1ccc(Nc2cnc3ccc(N)cc3n2)cc1`, the pEC50 is less than 4.98 and the pIC50 was less than 4.98.

In the case of `O=C1c2c(O)cc(O)cc2OC(c2ccc(O)c(O)c2)C1O` (stereo unspecified), the pEC50 was less than 3.70 and the pIC50 is less than 3.70.

For `CCOC(=O)N1N=C(c2ccccc2)OC2(N3CCOCC3)CCC(C(C)(C)C)CC12` (stereo unspecified), the pEC50 was 4.52 and the pIC50 was 4.50.

Consider `CO[C@@H]1C2=CC=CC=C[C@H]2n2c(=O)n(C)c(=O)n21`, for which the pEC50 is less than 3.28 and the pIC50 is 4.10.

Take `COc1ccc(-c2csc(=Nc3ccccc3)n2CC(O)c2ccc([N+](=O)[O-])cc2)cc1` (stereo unspecified): the pEC50 is less than 3.70 and the pIC50 was 4.42.

For `Clc1ccc(COC(Cn2ccnc2)c2ccc(Cl)cc2Cl)c(Cl)c1` (stereo unspecified), the pEC50 is less than 3.70 and the pIC50 was 4.85.

With `CC(/C=C/c1ccccc1)=N/NS(=O)(=O)c1ccc([N+](=O)[O-])cc1`, the pEC50 was less than 4.82 and the pIC50 was less than 4.82.

With `CC(=O)C(CN(C)C)C(c1ccccc1)c1c(O)c2ccccc2oc1=O` (stereo unspecified), the pEC50 was less than 4.19 and the pIC50 is 4.96.

With `C[N+](C)([O-])CCCNc1c2ccccc2nc2cccc([N+](=O)[O-])c12`, the pEC50 is less than 4.70 and the pIC50 was 6.73.

With `CCC1N2CCCCC2[C@@H]2c3[nH]c4ccccc4c3CCN12` (stereo partly specified), the pEC50 was less than 3.35 and the pIC50 is 3.41.

`Cc1cc(-c2no[n+]([O-])c2-c2cc(C)sc2S(C)(=O)=O)c(S(C)(=O)=O)s1`: the pEC50 was less than 3.70 and the negative-log IC50 (pIC50) was less than 3.70.

For the molecule `C[N+]1(C)CC2C3C=CC(C3)C2C1` (stereo unspecified), the pEC50 was less than 3.51 and the pIC50 is less than 3.51.

`O=C1C=C(C2=CC(=O)C(=O)c3ccccc32)c2ccccc2C1=O`: the pEC50 is less than 3.82 and the negative logarithm of the IC50 (pIC50) was 5.72.

`COC(=O)c1c[nH]cc1CCc1c[nH]cc1C(=O)OC`: the outcome was inactive.

Consider `CC(C)=Cc1cc(C(=O)Nc2ccc(Cl)c(Cl)c2)nc(N)n1`, for which the pEC50 is less than 3.13 and the pIC50 is 3.31.

Turning to `Nc1ncnc2c1ncn2C1C=CC(CO)CC1` (stereo unspecified), the pEC50 was less than 3.70 and the pIC50 was less than 3.70.

Regarding `Nc1nc2ncc(CNc3ccc(C(=O)NC(CCC(=O)NC(CCC(=O)NC(CCC(=O)NC(CCC(=O)NC(CCC(=O)O)C(=O)O)C(=O)O)C(=O)O)C(=O)O)C(=O)O)cc3)nc2c(=O)[nH]1` (stereo unspecified), the pEC50 was less than 4.00 and the pIC50 is less than 4.00.

`[O]=[Sb][c]1ccc(Cl)cc1` gave a pEC50 of less than 3.70 and a pIC50 of 5.58.

In general, pEC50 refers to −log10 of the EC50, conventionally taken in molar units. As usually defined, the pIC50 is the IC50 on a negative log10 scale, so that one unit is a factor of ten. A low value points to a high IC50.
